Measured values as given in US11446402B2, “Composition for material delivery, including exosome mimetics derived from red blood cells, and use thereof” (Kyungpook National University Industry—Academic Cooperation …, priority 2018, dated 2022).

Key:
[1] = In vivo gamma camera imaging after tail vein infusion; design: species or system C57BL/6 mice
Experimental: In vivo gamma camera imaging was performed on 5-week-old male C57BL/6 mice (Hamamatsu, Shizuoka). The gamma camera images were captured and taken for 10 min using a 2 mm pinhole collimator (Infinia II, GE Healthcare, Milwaukee, Wis., USA). A 200 μl volume of 37 MBq ^99mTC-RBC-EM was infused into the tail vein of mice. As a control, the same amount of free ^99mTc was infused. During the imaging, mice were continuously anesthetized using 2.5% isoflurane (Merial, Lyon, France). The gamma camera images were obtained by capturing the gamma camera images 1 hour and 3 hours after infusing ^99mTc-RBC-EM and free ^99mTc.
The region of interests (ROIs) in mice into which free ^99mTc was infused were the thyroid gland and the stomach, and the region of interests (ROIs) in mice into which ^99mTc-RBC-EM was infused were the thyroid gland and the liver/spleen. The right thigh part was used as a control of ROI. The average ROI count per pixel was calculated by dividing the same mice by the control ROI.

8505C cells = test: Labeling of tumor cells with ^99mTc, uptake by gamma-counter; format: cell-based, human; settings: 4 μCi
Experimental: A human atypical thyroid carcinoma 8505C cell line (Deutsche Sammlung von Mikroorganismen and Zellkulturen (DSMZ)) was cultured under a humidified atmosphere of 5% CO2 at 37° C. in Dulbecco's Modified Eagle Medium (DMEM, Invitrogen, Grand Island, N.Y., USA) supplemented with 10% fetal bovine serum (FBS), 10 U/ml penicillin, and 10 μg/ml streptomycin (Invitrogen). The 8505C cells were cultured together with ^99mTc-RBC-EM with various doses (0, 1, 2, and 4 μCi). 24 hours later, free ^99mTc-RBC-EM, which had not been absorbed in cells, were washed using PBS. Thereafter, the 8505C cells were cultured in a 20% FBS solution in a 37° C. CO2 incubator for 1, 6, 12, and 18 hours. The uptake values were measured by a gamma-counter (Cobra II, 1 Hewlett Packard, USA) at all the time points, and the amount of radiation measured was shown as a count per minute (cpm) unit. In order to compare the aforementioned results with the results of ^99mTc-RBC-EM (4 μCi), it was measured whether tumor cells were labeled with ^99mTc-RBC-EM using free ^99mTc (4 μCi).

- uptake in regions of interest 3 hours after the infusion compared to 1 hour ([1]; free ^99mTc: thyroid gland and stomach, ^99mTc-RBC-EM: thyroid gland, liver, spleen): significantly (P<0.001) increased
SMILES: [99Tc] [free ^99mTc, technetium-99m]
- organs of uptake in gamma camera image ([1]; 1 hour after injection, intravenous): strong uptake of free ^99mTc in the thyroid gland, the stomach, and the bladder
- absorption in 8505C cells (8505C cells): rarely absorbed
- absorption in 8505C cells as the time is increased (8505C cells): not increased
